Assay results from article PMC9154803, “Synthesis, X-ray diffraction analysis, quantum chemical studies and α-amylase inhibition of probenecid derived S-alkylphthalimide-oxadiazole-benzenesulfonamide hybrids” (Journal of Enzyme Inhibition and Medicinal Chemistry, 2022).
Values after ≈ are worked out from the molar mass of the structure shown.

Biological target: T1, α-amylase
T1 construct: gene AMY2
Experiment: DNS starch hydrolysis assay, absorbance at […] nm
Type: biochemical

Structure (SMILES): CCCN(CCC)S(=O)(=O)c1ccc(-c2nnc(SCCCCN3C(=O)c4ccccc4C3=O)o2)cc1 [compound 2, 4–(5-(4–(1,3-Dioxoisoindolin-2-yl)butylthio)-1,3,4-oxadiazol-2-yl)-N,N-dipropylbenzenesulfonamide]
- IC50 value: 76.92 ± 0.19 µg/mL (≈ 142 µM)

Structure (SMILES): CCCN(CCC)S(=O)(=O)c1ccc(-c2nnc(SCCCN3C(=O)c4ccccc4C3=O)o2)cc1 [compound 1, 4–(5-(3–(1,3-Dioxoisoindolin-2-yl)propylthio)-1,3,4-oxadiazol-2-yl)-N,N-dipropylbenzenesulfonamide]
- IC50 value: 92.23 ± 0.23 µg/mL (≈ 174 µM)
